Data as given in PubChem BioAssay (NCI).
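Cells were grown in 96-well plates and exposed to each compound for 48 hours at five concentrations; endpoints were interpolated linearly between bracketing concentrations, or set to the highest concentration if not reached. Here, GI50 denotes the concentration required for 50% inhibition of growth. TGI denotes the concentration required for complete inhibition of growth.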

Columns and labels:
Assay in all cases: NCI-60 cell line screen, 48 h
[1] = system: SF-539 CNS
[2] = system: SK-MEL-5 melanoma
[3] = system: HS 578T breast
[4] = system: MOLT-4 leukemia
[5] = system: MALME-3M melanoma
[6] = system: HT29 colon
[7] = system: 786-0 renal
[8] = system: OVCAR-4 ovarian
[9] = system: NCI-H23 lung
[10] = system: ACHN renal

| SMILES | GI50 [1] | TGI [1] | GI50 [2] | TGI [2] | GI50 [3] | TGI [3] | GI50 [4] | TGI [4] | GI50 [5] | TGI [5] | GI50 [6] | TGI [6] | GI50 [7] | TGI [7] | GI50 [8] | TGI [8] | GI50 [9] | TGI [9] | GI50 [10] | TGI [10] |
| --- | --- | --- | --- | --- | --- | --- | --- | --- | --- | --- | --- | --- | --- | --- | --- | --- | --- | --- | --- | --- |
| CC/C(=C/c1ccc(OC)cc1)[N+](=O)[O-] | 1.82 µM | 3.38 µM | 1.87 µM | 3.56 µM | 3.84 µM | 22.2 µM | 2.7 µM | 7.3 µM | 1.78 µM | 3.77 µM | 2.71 µM | 7.12 µM | 1.7 µM | 3.14 µM | 3.15 µM | 12.1 µM | 2.15 µM | 5.74 µM | 1.71 µM | 3.21 µM |
| N#Cc1ccc2c(-c3ccnc(NC4CC4)n3)c(-c3ccc(F)cc3)nn2c1 | > 25 µM | > 25 µM | > 25 µM | > 25 µM | > 25 µM | > 25 µM | > 25 µM | > 25 µM | > 25 µM | > 25 µM | > 25 µM | > 25 µM | > 25 µM | > 25 µM | > 25 µM | > 25 µM | > 25 µM | > 25 µM | > 25 µM | > 25 µM |
| NS(=O)(=O)c1cccc(Nc2cc(-c3ccc(F)cc3)[nH]n2)c1 | 15.1 µM | > 25 µM | 24.5 µM | > 25 µM | > 20.8 µM | > 25 µM | > 25 µM | > 25 µM | > 25 µM | > 25 µM | > 25 µM | > 25 µM | 23.2 µM | > 25 µM | > 22 µM | > 25 µM | > 25 µM | > 25 µM | 13.2 µM | > 25 µM |
| O=C1c2ccccc2-c2cn(Cc3ccccc3)c3cccc(c23)C1c1cccnc1 (stereo not given) | 5.67 µM | > 50 µM | 2.42 µM | 17.9 µM | 2.92 µM | 45 µM | 3.2 µM | > 50 µM | 10.2 µM | > 50 µM | 1.86 µM | > 50 µM | 5.78 µM | > 50 µM | 6.15 µM | > 50 µM | 1.74 µM | > 50 µM | 12.1 µM | > 50 µM |
| COC(=O)c1sc(-n2cnc3cc(OC)c(OC)cc32)cc1OCc1ccccc1C(F)(F)F | > 25 µM | > 25 µM | > 25 µM | > 25 µM | 6.2 µM | > 25 µM | > 25 µM | > 25 µM | > 25 µM | > 25 µM | > 25 µM | > 25 µM | 10.8 µM | > 25 µM | > 25 µM | > 25 µM | > 25 µM | > 25 µM | > 25 µM | > 25 µM |
| COc1ccc2c(Cl)cc(NC(=S)Nc3ccccc3)nc2c1 |  | > 100 µM |  | > 100 µM |  | 37.3 µM |  | 72.2 µM |  | 69.4 µM |  | 44.4 µM |  | 62.7 µM |  | > 100 µM |  | 73.7 µM |  | > 100 µM |
| COc1oc(C2C/C(=C/C(C)=C/C(C)=C/C(C)=C/c3ccc([N+](=O)[O-])cc3)CO2)c(C)c(=O)c1C (stereo not given) |  | 33.4 µM |  | 3.61 µM |  | > 31.6 µM |  | 10.2 µM |  | 16.2 µM |  | > 50 µM |  | 21.6 µM |  | > 42.2 µM |  | 31.4 µM |  | 6.58 µM |
| CCOC(=O)Nc1cc2c(c(N)n1)N=C(c1ccc(Cl)cc1Cl)CN2 |  | 0.0475 µM |  | 0.999 µM |  | 1.41 µM |  | > 100 µM |  | 29.6 µM |  | 0.641 µM |  | 18.5 µM |  | 39.7 µM |  | 27.5 µM |  | 20.8 µM |
| Oc1ccccc1/C=N\NC(=S)Nc1ccc(F)cc1 | 2.12 µM | 32.3 µM | 1.15 µM | 7.15 µM | 5.14 µM | > 100 µM | 0.586 µM | > 31.1 µM | 1.2 µM | 8.35 µM | 4.49 µM | 25 µM | 3.38 µM | > 100 µM | 0.462 µM | 49.4 µM | 2.37 µM | > 100 µM | 0.674 µM | > 100 µM |
| COc1cc(C(=O)/C=C/c2c[nH]c3ccccc23)cc(OC)c1OC | 0.0184 µM | 0.0965 µM | < 0.0173 µM | 0.775 µM | 0.0208 µM | 30.4 µM | 0.0473 µM | 15.6 µM | 0.0381 µM | 18 µM | < 0.0146 µM | 0.343 µM | < 0.0223 µM | > 33.9 µM | 0.684 µM | 43.1 µM | 0.0602 µM | 45.4 µM | 0.0509 µM | 16.7 µM |
| CCOC(=O)c1c(CN2CCCCC2)nc2ccc(Cl)cc2c1-c1ccccc1 | 26.7 µM | 66.2 µM | 17.4 µM | 32.8 µM | 27.1 µM | 75.1 µM | 6.5 µM | 27.9 µM | 25.1 µM | 61.9 µM | 18.8 µM | 54.2 µM | 19.2 µM | 41.8 µM | 37.7 µM | > 100 µM | 24.2 µM | 64.1 µM | 16.9 µM | 35 µM |
| COc1cc(/C=N/NC(=O)c2cnn3c2NC(c2ccccc2)C3)ccc1OCc1ccccc1 (stereo not given) | 0.524 µM | 2.29 µM | 0.663 µM | 2.8 µM | 0.908 µM | 3.3 µM | 1.14 µM | 12.2 µM | 0.616 µM | 3.7 µM | 0.43 µM | 4.33 µM | 1.16 µM | 4.03 µM | 1.2 µM | 3.08 µM | 1.2 µM | 6.12 µM | 0.903 µM | 6.99 µM |
| CN(N=O)c1ccc(/C=C/c2ccnc3ccccc23)cc1 |  | > 100 µM |  | > 100 µM |  | > 100 µM |  | > 100 µM |  | > 100 µM |  | > 100 µM |  | > 100 µM |  | > 100 µM |  | > 100 µM |  | > 100 µM |
| Cc1ccc(C)c(N2CCN(c3ccncc3N)CC2)c1 | 15.4 µM | 56.9 µM | 11.7 µM | 24.4 µM | 14.8 µM | 38.4 µM | 25.6 µM | 91.2 µM | 17.6 µM | 40.7 µM | 11.2 µM | 26.3 µM | 20.5 µM | 58.1 µM | 19.1 µM | > 100 µM | 12.1 µM | 61 µM | 11.9 µM | > 100 µM |
